Reference: PMC9468151, “Identification of a binding site on soluble RANKL that can be targeted to inhibit soluble RANK-RANKL interactions and treat osteoporosis” (Nature Communications, 2022)
Where “and” joins values, the source holds several entries; their conditions need not be identical. Identical values can stand only once.

Assays:
[1] = target: T1, human mRANKL and human OPG (Homo sapiens, UniProt O14788); assay: mRANKL-OPG binding, HEK 293T cells with full length human RANKL; format: cell-based
T1 construct: HEK 293 T cells that transfer full length mouse RANKL or human RANKL; expressed in transfected cells; host or cells: HEK293T
Description: mRANKL-OPG: MC3T3-E1 cells were differentiated by osteoblast differentiation medium (Pythonbio, China) for 2 days. Then cells were exposed to 1 M NaCl for 5 minutes to remove endogenous OPG, washed once in PBS, and fixed with 70% ethanol for 5 minutes at 4 °C. Fixed cells were wash once by PBS and then exposed to PBS that containing 100 ng mouse OPG (Sino, China) or 100 ng mouse OPG with 1 μM S3-15 and incubated for an additional 30 min at 4 °C. Cell layers were washed 2 times with PBS and lysed with 1% triton in PBS. The concentration of OPG in cell lysates were measured with an OPG ELISA kit (USCN, China). Similar proceed were performed using HEK 293 T cells that transfer full length mouse RANKL or human RANKL.

NF-κB = assay: Reporter-gene assay for NF-κB; format: cell-based, mouse; set-up: NF-κB luciferase expression (fig. 6c): unit not given here; conditions: for NF-κB luciferase expression (fig. 6c): sRANKL stimulated; for reporter signal (fig. S3h): three replicates
Description: In order to investigate the NF-κB and NFAT transcriptional inhibition activity of selective sRANKL inhibitor, luciferase reporter gene assays were used[57]. RAW 264.7 cells stably transfected with an NF-κB luciferase reporter gene (3κB-Luc-SV40) or NFAT luciferase reporter gene were seeded into 96-well plates at a density of 1.5 × 10^5 or 1.0 × 10^5 cell per well respectively for 24 h. Cells were pretreated with compounds for 1 h, and then stimulated with sRANKL (100 ng/mL), TNF-ɑ (20 ng/mL), […] (50 ng/mL) and LPS (500 ng/mL) for 6 h for NF-κB transcriptional or 24 h for NFAT transcriptional. After treatment both cells were lysed and measured luciferase activity using a Promega Luciferase Assay system (Promega Corporation) by a Varioskan flash Multimode Microplate Reader (Thermo Scientific).

[2] = system: WT sRANKL induced osteoclast formation with H226A/W194A sRANKL; assay: Rescue experiment: WT sRANKL combined with W194A or H226A sRANKL; format: cell-based, mouse; set-up: osteoclast formation (fig. S4b): unit not given here; conditions: S3-15 10 μM; for OC numbers: 100 ng/mL WT sRANKL
Description: For the osteoclast formation induced by WT and Q238A sRANKL experiments, BMMs were seeded in 96-well plate in density of 6 × 10^3 cell/ well with α-MEM completed medium containing 10 ng/mL M-CSF for 24 h. Then the cells were treated with 0 μM, 0.3 μM, 3 μM and 10 μM and stimulated with 100 ng/mLWT sRANKL or Q238A sRANKL respectively. For the osteoclast formation induced by WT, W194A, and H226A sRANKL experiments, cells were stimulated with 100 ng/mL WT sRANKL combined W194A, H226A sRANKL in different concentrations (50 ng/mL, 200 ng/mL, and 400 ng/mL) with or without 10 μM S3-15. After 5 days, osteoclasts were formed, and applied TRAP-staining as described above. TRAP-positive multinucleated cells with > 3 nuclei were scored as osteoclasts.

OVX rats = assay: Serum biochemical markers determination; format: in vivo, rat; set-up: TG / ALT / AST / ALP / GLU / TC / Ca / TBA / TBIL / BUN / CREA: unit not given here
Source text: After treating with S3-15 for 12 weeks, rat serum was harvested and analyzed routine blood biochemical markers, including calcium (Ca), phosphorus (P), total cholesterol (TC), triglyceride (TG), glucose (Glu), aspartate aminotransferase (AST), alanine aminotransferase (ALT), alkaline phosphatase (ALP), total bile acid (TBIL), total bilirubin (TBA), creatinine (CREA), urea nitrogen (BUN). Ca, P, AST, ALT, ALP, CREA, and BUN were purchased from Wako Pure Chemical, Japan; Glu,TC, TG, TBIL, and TBA were purchased from Kehua Bio-engineering Co.LTD, China. Routine blood biochemical markers were examined with a Hitachi chemistry automated analyzer (Hitachi 7020, Japan) according to manufacturer’s instruction.

OVX mice = assay: Splenic lymphocyte transformation test; format: in vivo, mouse; set-up: key: OD (MTT) of stimulated minus unstimulated cells; conditions: OVX mice + S3-15 4 weeks, individual animals
Description: Spleens were aseptically isolated from sham group, OVX group and OVX treatment group after treating S3-15 for 4 weeks in a clean bench (II Class biosafety Cabinets, Escolifesciences, Singapore). Splenic single cell suspensions were obtained by gentle squeezing spleen tissue by injecting 2 mL cold Hank’s solution. Splenic cells were filtered through 40 μm nylon filters (BD Biosciences, Darmstadt, Germany), and centrifuged at 1400 × g for 10 min. Then cells were resuspended in 1640 completed medium (containing 10%FBS, 1% penicillin/streptomycin, 1% glutamine (200 mmol/L) and 5 × 10^−5 mol/L 2-mercaptoethanol) with a concentration of 5 × 10^6 cells/mL and seeded 100 μL into 96-well plates. Two wells for each mouse, and one well stimulated with 50 μL […] (Sigma-Aldrich®, Germany) solution (working concentration 7.5 μg/mL in 1640 completed medium), another well added 50 μL 1640 complete medium as a control. After that, the plates were incubated at 37 °C in a CO2 incubator at 5% CO2 for 72 h. After stimulation, cells were measured by MTT method. Stimulation of cell proliferation ability was determined as the absorbance (OD) value of stimulated minus unstimulated cells for each cell sample.

[3] = serum, OVX rats, individual animals

T1 sequence (O14788 whole entry): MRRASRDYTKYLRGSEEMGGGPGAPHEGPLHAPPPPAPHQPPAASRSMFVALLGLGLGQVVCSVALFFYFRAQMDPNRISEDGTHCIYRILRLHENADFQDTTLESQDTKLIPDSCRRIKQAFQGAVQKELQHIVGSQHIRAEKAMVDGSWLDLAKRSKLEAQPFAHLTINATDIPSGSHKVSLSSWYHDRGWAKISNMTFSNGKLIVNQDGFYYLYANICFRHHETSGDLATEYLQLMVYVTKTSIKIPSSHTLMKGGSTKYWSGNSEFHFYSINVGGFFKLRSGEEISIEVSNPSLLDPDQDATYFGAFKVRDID

Compound: CC(=O)/C(=N\Nc1ccccc1C(=O)O)C(=O)Nc1ccccn1 [S3-15]
- human mRANKL and human OPG binding ([1]; 1 μM): no effects
- mRANKL-OPG binding signal (fig. S4p) ([1]; OPG+S3-15): 0.1995 and 0.1932 and 0.1954
- luciferase activity (fig. S3g, taken as NF-κB) (NF-κB; IL-1β stimulated + S3-15): 748200 and 847300 and 792000
- luciferase activity (fig. S3g, taken as NF-κB) (NF-κB; LPS stimulated + S3-15): 375600 and 397200 and 396100
- luciferase activity (fig. S3g, taken as NF-κB) (NF-κB; TNF-α stimulated + S3-15): 61380 and 70860 and 74440
- NF-κB luciferase expression (fig. 6c) (NF-κB; S3-15 conc. 0.08): 32.0377 and 29.8492 and 26.4557
- NF-κB luciferase expression (fig. 6c) (NF-κB; S3-15 conc. 0.28): 25.9787 and 28.8312 and 30.4836
- NF-κB luciferase expression (fig. 6c) (NF-κB; S3-15 conc. 0.92): 26.259 and 24.0852 and 28.8361
- NF-κB luciferase expression (fig. 6c) (NF-κB; S3-15 conc. 3.03): 25.0885 and 25.1918 and 25.4328
- NF-κB luciferase expression (fig. 6c) (NF-κB; S3-15 conc. 10): 23.5738 and 23.8492 and 23.6426
- NF-κB luciferase expression (fig. 6c) (NF-κB; S3-15 conc. 33): 17.4311 and 18.5918 and 15.8918
- reporter signal (fig. S3h) (NF-κB; stimulus IL-1β): 348400 and 323800 and 307900
- reporter signal (fig. S3h) (NF-κB; stimulus LPS): 720100 and 801600 and 826800
- reporter signal (fig. S3h) (NF-κB; stimulus TNF-α): 62390 and 81670 and 85200
- TNF-α, IL-β and LPS activated NF-κB (NF-κB; without RANKL): cannot affect
- OC numbers ([2]; H226A RANKL 0 ng/mL): 36 and 29
- OC numbers ([2]; H226A RANKL 50 ng/mL): 173 and 156 and 170
- OC numbers ([2]; H226A RANKL 200 ng/mL): 113 and 121 and 125
- osteoclast formation (fig. S4b) ([2]; W194A RANKL 0 ng/mL): 34 and 49 and 27
- osteoclast formation (fig. S4b) ([2]; W194A RANKL 50 ng/mL): 147 and 144 and 140
- osteoclast formation (fig. S4b) ([2]; W194A RANKL 200 ng/mL): 145 and 199 and 158
- osteoclast formation (fig. S4b) ([2]; W194A RANKL 400 ng/mL): 119 and 118 and 97
- organ toxicity / routine blood examination (OVX rats; rats, 12 weeks treatment): no organ toxicity in vivo
- ALP (OVX rats; [3]): 35 and 77 and 34 and 39 and 60 and 23 and 42 and 48 and 49
- ALT (OVX rats; [3]): 29 and 34 and 37 and 33 and 38 and 25 and 28 and 32 and 39
- AST (OVX rats; [3]): 82 and 90 and 88 and 109 and 96 and 114 and 85 and 87 and 95
- BUN (OVX rats; [3]): 5.99 and 5.28 and 6.41 and 6.31 and 5.6 and 5.72 and 5.71 and 5.18 and 6
- CREA (OVX rats; [3]): 58.7 and 57.9 and 57 and 66.1 and 49.8 and 56.6 and 56.8 and 65.7 and 60.7
- Ca (OVX rats; [3]): 2.46 and 2.39 and 2.41 and 2.43 and 2.15 and 2.33 and 2.34
- GLU (OVX rats; [3]): 10.2096 and 9.028 and 12.7431 and 8.981 and 13.9764 and 7.763 and 10.2611 and 9.122 and 11.2914
- TBA (OVX rats; [3]): 26.48 and 20.71 and 36.69 and 15.65 and 15.57 and 21.76 and 21.4 and 18.86 and 18.33
- TBIL (OVX rats; [3]): 1.84 and 1.07 and 1.06 and 1.28 and 0.95 and 0.98 and 0.77 and 0.97 and 0.78
- TC (OVX rats; [3]): 2.99 and 2.55 and 2.35 and 2.13 and 2.5 and 2.24 and 2.36 and 2.45
- TG (OVX rats; [3]): 1.05 and 0.75 and 0.49 and 0.31 and 0.47 and 0.65 and 0.46 and 0.64
- Spleen lymphocyte transforming index (OVX mice): 0.337 and 0.404 and 0.3367 and 0.4323 and 0.2993 and 0.3783 and 0.2337 and 0.316
